Test results: patent US20250127168A1, “METHOD FOR PATHOGENS, MICROORGANISMS, AND PARASITES INACTIVATION” (New York Blood Center, Inc., priority 2018, published 2025)

Columns and labels:
Candida albicans = experiment: Fungal inactivation in growth media; assay type: cell-based; details: 250 μM
Experimental: (§1) Inactivation of blood-borne parasites, Plasmodium falciparum 3D7 and Babesia divergens Rouen, was conducted in fresh human red blood cells for 24 hours at physiological temperature. […] Above six logs inactivation of Candida albicans, a representative of pathogenic fungi, and three logs inactivation of Tetrahymena thermophila, a model organism for ciliated protozoa, were achieved by compound XIV at 250 μM in their respective growth media.

[1] = test system: Plasmodium falciparum 3D7; experiment: Inactivation of blood-borne parasites in fresh human red blood cells; assay type: cell-based; details: 250 μM, 24 hours, physiological temperature
Experimental: as §1

Babesia divergens Rouen = experiment: as above; assay type: cell-based; details: 250 μM, 24 hours, physiological temperature
Experimental: as §1

S. aureus = experiment: Bacterial inactivation in Ringer's solution, colony agar plate count; assay type: cell-based; details: 100 μM, RT, 1 h treatment
Experimental: (§2) A panel of G+F and G-bacteria were inactivated in their respective growth medium using compound VI, compound X, and compound XIV. All cells were grown in corresponding media to middle log phase, collected by centrifugation, re-suspended in Ringer's solution (RS), and treated at RT with 100 μM of compound VI, compound X, and compound XIV, which were added to the suspension as 100× concentrate in RS. Controls received RS only. At the end of the incubation, unreacted compound VI, compound X, and compound XIV were neutralized with 10 mM sodium thiophosphate during incubation at RT for 30 min. The viable cells were enumerated using serial dilutions by standard colony agar plate count. Table 1 summarizes the typical results of 1 h treatment of E. coli, P. fluorescens, Y. enterocolitica, B. cereus, S. aureus, and S. epidermidis with compound VI, compound X, and compound XIV.

Y. enterocolitica = experiment: as above; assay type: cell-based; details: 100 μM, RT, 1 h treatment
Experimental: as §2

S. epidermidis = experiment: as above; assay type: cell-based; details: 100 μM, RT, 1 h treatment
Experimental: as §2

B. cereus = experiment: as above; assay type: cell-based; details: 100 μM, RT, 1 h treatment
Experimental: as §2

E. coli = experiment: as above; assay type: cell-based; details: 100 μM, RT, 1 h treatment
Experimental: as §2

P. fluorescens = experiment: as above; assay type: cell-based; details: 100 μM, RT, 1 h treatment
Experimental: as §2

[2] = test system: Human respiratory syncytial virus (RSV); experiment: Viral inactivation, modified plaque assay; assay type: cell-based; details: 6 h, Ringer's/Lactate solution
Experimental: Human respiratory syncytial virus (RSV) was inactivated by using Compound VI or Compound X. For that purpose, sucrose gradient-purified virus was treated with 100 μM of Compound VI and Compound X at RT. […] The virus titers were determined using standard 10× serial dilutions in a modified plaque assay. For mock-treated virus no significant changes in RSV infectivity were found even after 6 h incubation at RT (in different experiments, the reduction of titers were in the range of 0.11-0.36 Login PFU/mL).
Inactivation of RSV with different concentrations of Compound XVI at RT and 40° C. was performed as described in Example 9.

[3] = Neutralization of compound X by ethyl 2-mercaptoacetate (LCMS); assay type: physicochemical; details: PBS, RT; for Peak Areas (LCMS): 100 μM X + 10 mM ethyl 2-mercaptoacetate
Experimental: 100 μM solution of compound X in phosphate buffered saline was incubated at room temperature with 10 mM of ethyl-2-mercaptoacetate, and the change of the concentration of compound X, as well as the formation of the intermediate compound of neutralization (XXI) and the final compound of neutralization XXII was determined by LCMS analysis of the mixture. The reaction scheme of neutralization is presented below. The peak areas of compound X, intermediate neutralization product, Q1 (compound XXI) and final neutralization product, Q2 (compound XXII) are presented in the Table 8 below, and in FIG. 18.

Structure (SMILES) | Peak Areas (LCMS) ([3]; Time 6 min) | Peak Areas (LCMS) ([3]; Time 14.5 min) | Peak Areas (LCMS) ([3]; Time 23.1 min) | Peak Areas (LCMS) ([3]; Time 31.6 min) | Peak Areas (LCMS) ([3]; Time 40.2 min) | Peak Areas (LCMS) ([3]; Time 48.7 min) | Peak Areas (LCMS) ([3]; Time 57.3 min) | Peak Areas (LCMS) ([3]; Time 65.8 min) | Peak Areas (LCMS) ([3]; Time 74.3 min) | Peak Areas (LCMS) ([3]; Time 82.9 min) | Peak Areas (LCMS) ([3]; Time 91.4 min) | Peak Areas (LCMS) ([3]; Time 100.0 min) | Peak Areas (LCMS) ([3]; Time 108.5 min) | Peak Areas (LCMS) ([3]; Time 117.1 min) | Peak Areas (LCMS) ([3]; Time 125.6 min) | further results
CN(CCCCN(C)CCCN(C)CCCN1CC1)CCCN(C)CCCN1CC1 [Compound XIV] | – | – | – | – | – | – | – | – | – | – | – | – | – | – | – | inactivation of Candida albicans (Candida albicans): Above six; reduction of the number of viable plasmodium organisms [1]: ≥ 7 logs; reduction of the number of viable babesia (Babesia divergens Rouen): 8 logs; Titer (S. aureus): 5.08 Log10CFU/mL; Titer (Y. enterocolitica): 5.04 Log10CFU/mL; Titer (S. epidermidis): 6.32 Log10CFU/mL; Titer (B. cereus): ≤1.00 Log10CFU/mL; Titer (E. coli): 3.51 Log10CFU/mL; Titer (P. fluorescens): ≤1.00 Log10CFU/mL
CN(CCCN1CC1)CCCN1CC1 [Compound XVI, 3-(aziridin-1-yl)-N-(3-(aziridin-1-yl)propyl)-N-methylpropan-1-amine] | – | – | – | – | – | – | – | – | – | – | – | – | – | – | – | RSV Inactivation (difference between TO titer and titer) ([2]; 40° C., 100 μM): >6.48 Log10 PFU/mL; RSV titer ([2]; 40° C., 100 μM): <0.52 Log10 PFU/mL; RSV Inactivation (difference between TO titer and titer) ([2]; 40° C., 250 μM): >6.48 Log10 PFU/mL; RSV titer ([2]; 40° C., 250 μM): <0.52 Log10 PFU/mL; RSV Inactivation (difference between TO titer and titer) ([2]; 40° C., 500 μM): >6.48 Log10 PFU/mL; RSV titer ([2]; 40° C., 500 μM): <0.52 Log10 PFU/mL; RSV Inactivation (difference between TO titer and titer) ([2]; RT, 100 μM): 5.02 Log10 PFU/mL; RSV titer ([2]; RT, 100 μM): 1.98 Log10 PFU/mL; RSV Inactivation (difference between TO titer and titer) ([2]; RT, 250 μM): 5.50 Log10 PFU/mL; RSV titer ([2]; RT, 250 μM): 1.50 Log10 PFU/mL; RSV Inactivation (difference between TO titer and titer) ([2]; RT, 500 μM): >6.48 Log10 PFU/mL; RSV titer ([2]; RT, 500 μM): <0.52 Log10 PFU/mL
CCOC(=O)CSCCNCCCN(C)CCCCN(C)CCCN(C)CCCNCCSCC(=O)OCC [XXII] | 48.7 | 131.9 | 214.4 | 280.7 | 349.3 | 397.1 | 424.3 | 479.4 | 489.3 | 498.6 | 513.2 | 527 | 520.5 | 548.8 | 536.5 | –
CCOC(=O)CSCCNCCCN(C)CCCN(C)CCCCN(C)CCCN1CC1 [XXI] | 181.6 | 307 | 363.5 | 375.8 | 390.1 | 368.5 | 338.6 | 331.1 | 306.5 | 268.6 | 256 | 227.8 | 202.2 | 195 | 174 | first order rate constant of concentration decrease ([3]; 10 mM ethyl 2-mercaptoacetate): 0.026 min⁻¹
